Assay results: patent US7015215B2, “Pyrrolo[2,1-c][1,4] benzodiazepines compounds and process thereof” (Council of Scientific and Industrial Research, priority 2003, dated 2006)

Columns and labels:
KM-12 = assay: NCI SRB cytotoxicity, Colon KM-12; assay type: cell-based, human; details: KM-12, Colon, 48 h
Description: (§1) Biological Activity: In vitro biological activity studies were carried out at National Cancer Institute (U.S.A.).
(§2) For each compound, dose response curves for each cell line were measured at a minimum of five concentrations at 10 fold dilutions. A protocol of 48 h continuous drug exposure was used, and a sulforhodamine B (SRB) protein assay was used to estimate cell viability or growth. The concentration causing 50% cell growth inhibition (GI50), total cell growth inhibition (TGI, 0% growth) and 50% cell death (LC50, −50% growth) compared with the control was calculated.

OVCAR-8 = assay: NCI SRB cytotoxicity, Ovarian OVCAR-8; assay type: cell-based, human; details: OVCAR-8, Ovarian, 48 h
Description: as §1, §2

SF-539 = assay: NCI SRB cytotoxicity, CNS SF-539; assay type: cell-based, human; details: SF-539, CNS, 48 h
Description: as §1, §2

HOP-92 = assay: NCI SRB cytotoxicity, Non-small-cell lung HOP-92; assay type: cell-based, human; details: HOP-92, Non-small-cell lung, 48 h
Description: as §1, §2

T-47D = assay: NCI SRB cytotoxicity, Breast T-47D; assay type: cell-based, human; details: 48 h
Description: as §1, §2

BT-549 = assay: NCI SRB cytotoxicity, Breast BT-549; assay type: cell-based, human; details: BT-549, Breast, 48 h
Description: as §1, §2

human tumor cell lines = assay: NCI in vitro cytotoxicity SRB assay, mean graph midpoints over the panel; assay type: cell-based; details: 48 h continuous exposure
Description: as §1, §2

HT-29 = assay: NCI SRB cytotoxicity, Colon HT-29; assay type: cell-based, human; details: HT-29, Colon, 48 h
Description: as §1, §2

A498 = assay: NCI SRB cytotoxicity, Renal A498; assay type: cell-based, human; details: 48 h
Description: as §1, §2

K-62 = assay: NCI SRB cytotoxicity, Leukemia K-62; assay type: cell-based, human; details: K-62, Leukemia, 48 h
Description: as §1, §2

NCI-H23 = assay: NCI SRB cytotoxicity, Non-small-cell lung NCI-H23; assay type: cell-based, human; details: 48 h
Description: as §1, §2

RPMI-8226 = assay: NCI SRB cytotoxicity, Leukemia RPMI-8226; assay type: cell-based, human; details: RPMI-8226, Leukemia, 48 h
Description: as §2

RXF 393 = assay: NCI SRB cytotoxicity, Renal RXF 393; assay type: cell-based, human; details: RXF 393, Renal, 48 h
Description: as §2

SF-295 = assay: NCI SRB cytotoxicity, CNS SF-295; assay type: cell-based, human; details: SF-295, CNS, 48 h
Description: as §1, §2

NCI-H522 = assay: NCI SRB cytotoxicity, Non-small-cell lung NCI-H522; assay type: cell-based, human; details: 48 h
Description: as §1, §2

COLO 205 = assay: NCI SRB cytotoxicity, Colon COLO 205; assay type: cell-based, human; details: COLO 205, Colon, 48 h
Description: as §1, §2

LOXIMVI = assay: NCI SRB cytotoxicity, Melanoma LOXIMVI; assay type: cell-based, human; details: 48 h
Description: as §1, §2

UACC-257 = assay: NCI SRB cytotoxicity, Melanoma UACC-257; assay type: cell-based, human; details: UACC-257, Melanoma, 48 h
Description: as §1, §2

SW-620 = assay: NCI SRB cytotoxicity, Colon SW-620; assay type: cell-based, human; details: SW-620, Colon, 48 h
Description: as §1, §2

SK-MEL-5 = assay: NCI SRB cytotoxicity, Melanoma SK-MEL-5; assay type: cell-based, human; details: SK-MEL-5, Melanoma, 48 h
Description: as §1, §2

SMILES: COc1cc2c(cc1OCCCCCN1CCN(CCCCCOc3cc4c(cc3OC)C(=O)N3CCC[C@H]3C=N4)CC1)N=C[C@@H]1CCCN1C2=O [Compound VId]
- Log GI 50 (KM-12): −5.25 mol/L
- Log LC 50 (KM-12): −4.00 mol/L
- Log GI 50 (OVCAR-8): −4.67 mol/L
- Log LC 50 (OVCAR-8): −4.00 mol/L
- Log GI 50 (SF-539): −5.44 mol/L
- Log LC 50 (SF-539): −4.00 mol/L
- Log GI 50 (HOP-92): −5.46 mol/L
- Log LC 50 (HOP-92): −4.00 mol/L
- Log GI 50 (T-47D): −5.00 mol/L
- Log LC 50 (T-47D): −4.00 mol/L
- Log GI 50 (BT-549): −5.31 mol/L
- Log LC 50 (BT-549): −4.00 mol/L
- Log10 GI50 mean graph midpoint (MG_MID) (human tumor cell lines): −5.14
- Log10 LC50 mean graph midpoint (MG_MID) (human tumor cell lines): −4.04
- Log10 TGI mean graph midpoint (MG_MID) (human tumor cell lines): −4.26
- Log GI 50 (HT-29): −5.02 mol/L
- Log LC 50 (HT-29): −4.00 mol/L
- Log GI 50 (A498): −5.00 mol/L
- Log LC 50 (A498): −4.00 mol/L
- Log GI 50 (K-62): −5.46 mol/L
- Log LC 50 (K-62): −4.20 mol/L
- Log GI 50 (NCI-H23): −5.18 mol/L
- Log LC 50 (NCI-H23): −4.00 mol/L
- Log GI 50 (RPMI-8226): −5.59 mol/L
- Log LC 50 (RPMI-8226): −4.54 mol/L
- Log GI 50 (RXF 393): −8.00 mol/L
- Log LC 50 (RXF 393): −5.09 mol/L
- Log GI 50 (SF-295): −5.30 mol/L
- Log LC 50 (SF-295): −4.00 mol/L
- Log GI 50 (NCI-H522): −5.47 mol/L
- Log LC 50 (NCI-H522): −4.00 mol/L
- Log GI 50 (COLO 205): −5.49 mol/L
- Log LC 50 (COLO 205): −4.00 mol/L
- Log GI 50 (LOXIMVI): −5.61 mol/L
- Log LC 50 (LOXIMVI): −4.00 mol/L
- Log GI 50 (UACC-257): −4.75 mol/L
- Log LC 50 (UACC-257): −4.00 mol/L
- Log GI 50 (SW-620): −5.49 mol/L
- Log LC 50 (SW-620): −4.00 mol/L
- Log GI 50 (SK-MEL-5): −5.48 mol/L
- Log LC 50 (SK-MEL-5): −4.00 mol/L
